Measurements from patent US6440660B1 (priority 1995, dated 2002).
Values after ≈ are worked out from the molar mass of the structure shown.

Assays:
[1] = tested on: P. falciparum field isolate TM335; conditions: cited from earlier work
[2] = tested on: P. falciparum field isolate PR145; conditions: cited from earlier work
[3] = tested on: P. falciparum field isolate TM336; conditions: strain TM336; cited from earlier work
[4] = tested on: P. falciparum field isolate TM352; conditions: strain TM352; cited from earlier work
P. falciparum W2 = conditions: strain W2; cited from earlier work
P. falciparum W2mef = conditions: strain W2mef; cited from earlier work
[5] = tested on: P. falciparum field isolate TM346; conditions: cited from earlier work
[6] = tested on: W2mef parasites (resistant to mefloquine); assay: Mefloquine resistance reversal study, W2mef (FIGS. 2, 3, 5); format: cell-based, P. falciparum; conditions: mefloquine alone without oligonucleotide, below threshold mefloquine concentration

| SMILES | IC50 [1] [ng/mL] | IC50 [2] [ng/mL] | IC50 [3] [ng/mL] | IC50 [4] [ng/mL] | IC50 (P. falciparum W2) [ng/mL] | IC50 (P. falciparum W2mef) [ng/mL] | IC50 [5] [ng/mL] | 3H-hypoxanthine incorporated on average [6] |
| --- | --- | --- | --- | --- | --- | --- | --- | --- |
| C=C[C@H]1C[N@@]2CC[C@H]1C[C@H]2[C@H](O)c1ccnc2ccc(OC)cc12 [quinine] | 65 (≈ 0.2 µM) | 90 (≈ 0.277 µM) | 87 (≈ 0.268 µM) | 1.2 (≈ 0.0037 µM) | 74 (≈ 0.228 µM) | – | – | – |
| OC(c1cc(C(F)(F)F)nc2c(C(F)(F)F)cccc12)C1CCCCN1 (stereo not shown) [mefloquine] | 6 (≈ 0.0159 µM) | 10 (≈ 0.0264 µM) | 15 (≈ 0.0396 µM) | 22 (≈ 0.0582 µM) | 2 (≈ 0.00529 µM) | 16 (≈ 0.0423 µM) | 20 (≈ 0.0529 µM) | 11,000 cpm |
| CCCCN(CCCC)CCC(O)c1cc2c(Cl)cc(Cl)cc2c2cc(C(F)(F)F)ccc12 (stereo not shown) [halofantrine] | 0.61 (≈ 0.00122 µM) | 2.0 (≈ 0.004 µM) | 2.8 (≈ 0.0056 µM) | 3.0 (≈ 0.00599 µM) | 0.3 (≈ 0.000599 µM) | – | 3.7 (≈ 0.00739 µM) | – |
